Reference: patent US11591298B2, “Bisaminoquinoline compounds, pharmaceutical compositions prepared therefrom and their use” (THE TRUSTEES OF THE UNIVERSITY OF PENNSYLVANIA, priority 2011, dated 2023)

Legend:
[1] = system: LC3II/LC3I ratio in LN229 cells; assay: LC3 immunoblotting (LC3II/LC3I ratio) in LN229 cells; assay type: cell-based, human; conditions: concentration of 10 μM, 4 hours
Description: FIG. 3. Effects of Lys01-Lys04 on LC3 immunoblotting Immunoblotting and quantification of LC3II/LC3I ratio in lysates from LN229 cells treated for 4 hours. The graphs show (mean+/−SD) LC3II/LC3I ratios of each treatment normalized to the LC3II/LC3I ratio of control treated cells for each experiment.
LN229 (human glioblastoma) were treated with Lys01 and derivatives Lys02, Lys03, Lys04, HCQ and CQ. […] LC3 is a ubiquitin-like protein which exists as an unconjugated form (LC3I) or conjugated to AV membranes (LC3II) (25). The ratio of LC3II/LC3I reflects the accumulation of AV in cells, and therefore effective autophagy inhibition.

[2] = system: 1205Lu; assay: Cell death after 24 hours in 1205Lu cells; assay type: cell-based; conditions: 10 μM
[3] = system: LN229 GFP-LC3 cells; assay: GFP-LC3 puncta imaging in LN229 GFP-LC3 cells; assay type: cell-based, human; conditions: for GFP-LC3 punctate fluorescence: within 4 hours
Description: Autophagy inhibition and cytotoxicity of Lys01 compared to HCQ (4A) Representative images of LN229 GFP-LC3 cells treated as indicated for 4 hours. White arrows: small puncta; red arrows: dense puncta. Graphs show mean+/−SEM puncta/cell. (4B) Representative electron micrographs of LN229-GFP-LC3 cells treated (4 hours) with DMSO, HCQ 10 μM, or Lys01 10 μM Arrows: Autophagic vesicles. (4C) LC3 immunoblotting of LN229 cells treated for 24 hours an indicated; calculated ratio of LC3II/LC3I ratios for bafilomycin versus control co-treatment. […] Values presented are means+/−SEM with 5 replicates per treatment.
To determine if Lys01 treatment was inducing production of new autophagic vesicles (an autophagy inducer) or blocking the clearance of autophagy vesicles (an autophagy inhibitor), a bafilomycin clamp experiment was performed (FIG. 4C). LN229 GFP-LC3 cells were treated with DMSO, rapamycin, HCQ 10 μM, and Lys01 10 μM, in the absence or presence of bafilomycin.

[4] = system: c8161 cells; assay: MTT assay in c8161 cells at 72 hours; assay type: cell-based; conditions: Lys01 versus Lys05
Description: (§1) FIGS. 5A, 5B. […] (5A) Immunoblotting against LC3 and p62 in c8161 cells treated as indicated (5B) MTT assay in c8161 cells at 72 hours. HCQ: Hydroxychloroquine.
(§2) Lys05, the trihydrochloride salt of Lys01 was synthesized to enhance aqueous solubility and to enable in vivo studies. […] To investigate the safety of Lys05 and its in vivo effects on autophagy, c8161 xenografts matched for tumor size were treated with intraperitoneal (i.p.) daily PBS, or equimolar doses of HCQ or Lys05 (HCQ 60 mg/kg (138 nmoles/g), Lys05 76 mg/kg (138 nmoles/g)) for 48 hours. […] After 48 hours of treatment mice were euthanized, and tumors were processed for electron microscopy (EM).

[5] = system: P. falciparum; assay: P. falciparum strains grown in vitro in human RBC (Table 2, FIG. 17); assay type: cell-based; conditions: some CQ-resistant cell lines; values only in FIG. 17
Text: FIG. 17, Table 2 provides IC50 (M) values of a number of compounds according to the present invention in P. falciparum.
There is a similar activity profile for anticancer activity of Lys01 derivatives and malaria cytotoxicity.

[6] = system: LN229 (human glioblastoma); assay: Cell death of cultured LN229 cells; assay type: cell-based; conditions: concentrations of 10 μM or higher, between 4-24 hours
[7] = system: LN229 (glioma), 1205Lu (melanoma), HT-29 (colon) and c8161 (melanoma) cells; assay: MTT assay (72 hours) in 4 cell lines; assay type: cell-based; conditions: range over the 4 cell lines tested
Description: FIGS. 4A, 4B, 4C, 4D. […] White arrows: small puncta; red arrows: dense puncta. Graphs show mean+/−SEM puncta/cell. (4B) Representative electron micrographs of LN229-GFP-LC3 cells treated (4 hours) with DMSO, HCQ 10 μM, or Lys01 10 μM Arrows: Autophagic vesicles. (4C) LC3 immunoblotting of LN229 cells treated for 24 hours an indicated; calculated ratio of LC3II/LC3I ratios for bafilomycin versus control co-treatment. […] (4D) MTT assay (72 hours) for 4 cell lines. Red: Lys01, Blue: Lys02, Purple: Lys03 Green: Lys04 Orange: HCQ. Values presented are means+/−SEM with 5 replicates per treatment.
The MTT assay was used to assess viable cells at 72 hours.

[8] = system: c8161 cells; assay: Immunoblotting against LC3 and p62 in c8161 cells; assay type: cell-based; conditions: Lys01 versus Lys05
Description: as §1, §2

[9] = system: HCC827; assay: Cell death after 24 hours in HCC827 cells; assay type: cell-based; conditions: 10 μM

SMILES: CN(CCNc1ccnc2cc(Cl)ccc12)CCNc1ccnc2cc(Cl)ccc12 [Lys01]
- potency as autophagy inhibitor relative to HCQ or CQ (LC3 immunoblotting) [1]: > 10 fold
- cell death [2]: Near complete cell death
- GFP-LC3 punctate fluorescence ([3]; 1 μM): numerous small puncta
- increase in GFP-LC3 puncta per cell, 10 μM Lys01 compared to 10 μM HCQ ([3]; 10 μM, 4 hours): 5 fold
- GFP-LC3 punctate fluorescence ([3]; 10 μM): dense puncta
- cell death ([3]; 100 μM): dead by 4 hours
- average number of vesicles per cell ([3]; Lys01 10 μM versus 100 μM HCQ): higher than in cells treated with 100 μM HCQ
- IC50 values in the MTT assay [4]: identical
- IC50, activity compared to artesunate [5]: more active than artesunate
- cell death of cultured cells [6]: Near complete cell death
- IC50 [7]: 4 to 8 µM
- LC3II/LC3I ratio [8]: equivalent dose-dependent increases
- autophagy cargo protein p62 [8]: accumulation
- cell death [9]: Near complete cell death
